In PMC9401007, “Advances towards Cell‐Specific Gene Transfection: A Small‐Molecule Approach Allows Order‐of‐Magnitude Selectivity” (Chemistry (Weinheim an Der Bergstrasse, Germany), 2022):

Legend:
HeLa cells [1] = test: Transfection of pH2B-mCherry plasmid, microscopy with CellProfiler readout; type: cell-based
Description: (§1) The development of vector 1 is illustrated in Table 1. In order to assess structure–activity relationships (SAR), we analyzed the minimal concentration needed to achieve transfection in steps of 100 μM, the toxicological profile and the transfection efficiency. To get swift access to toxicity data for SAR analysis, the compounds listed in Table 1 were evaluated in an MTS‐based cell‐viability assay, and transfection efficiencies were analyzed by CellProfiler® on HeLa cells (see the Supporting Information for details).[18] […] Amide formation on the N terminus reduced the net charge by 1, and acetylation at this position led to an increased concentration needed for successful transfection (Table 1, Entry B). Finally, the descent in transfection efficiency to 5.9 % highlights the relevance of a fifth positive charge.[19] Apparently, this reduction of positive charges impedes DNA condensation and must be compensated for.
4.2 Transfection and Microscopy
Cells were seeded in a 96-well plate from (Greiner bio-one) 24 h prior to experiments at a confluence of 1x104 in 100 µL of culture growth medium and grown at 37.0 °C, 5% CO2 atmosphere and 95% relative humidity. The vector was dissolved in DMSO. 0.100 µg of DNA were diluted with DB-PBS and an appropriate amount of vector solution added resulting in a total volume of 30 µL. This solution was incubated for 20 min at rt. Afterwards 30.0 µL of culture growth medium was replaced by vector/DNA mixture. All precipitate which had formed during the incubation process was added to the well. After 5 h of incubation the cells were washed with warm DB-PBS buffer (2x100 µL per well) before incubating the cells for 24h at 37.0 °C, 5% CO2 atmosphere and 95% relative humidity. After 24 h the cells were examined under the microscope.
Figure S4. Representative microscopy images of HEK293t, HeLa, CHO, A549 and HCT116 cells 24 h after transfection with 1 (150 µM) with pH2B-mCherry.
Scale bar represents 200 µm. […]
4.3 Quantification of Transfection Results
For quantification of transfection efficiencies, cells were transfected with the pH2B-mCherry plasmid using the different compounds at the described concentrations and stained with DAPI. […] The transfection efficiency was calculated using CellProfiler™.[7] […] Next, the fluorescence intensity in the red channel (Ex = 555 nm; Em > 590 nm) was measured within the segmented nuclei and a threshold was applied.
The ratio between pH2B-mCherry positive nuclei and all nuclei (segmented by DAPI) was determined as transfection efficiency. […]
Figure S7. […] The pipeline recognizes Hoechst-stained nuclei and measures the intensity of the fluorescent reporter protein within the previously calculated nuclei boundaries. […]

HeLa cells [2] = test: MTS-based cell-viability assay (CellTiter 96 AQueous One Solution Cell Proliferation Assay); settings: 5 h incubation with plasmid DNA 1 µg/ml
Description: as §1
4. Biological experiments
Determination of the toxicity of the compounds was performed using the colorimetric CellTiter 96® AQueous One Solution Cell Proliferation Assay (Promega). […] Absorbance at 490 nm was measured using a GloMax-multi plate reader (Promega). […]

Substance: tetralysine-guanidinocarbonylpyrrol
- Conc.: minimal concentration needed to observe successful transfection during microscopy (HeLa cells [1]; analysed in steps of 100 μM, pH2B-mCherry plasmid, 5 h incubation, examined after 24 h): 150 µM
- Efficiency: transfection efficiency by CellProfiler readout (HeLa cells [1]; at the (minimal) concentration printed in column Conc., fraction of pH2B-mCherry positive nuclei): 3.2%
- Efficiency: transfection efficiency by CellProfiler readout at the optimal concentration (HeLa cells [1]; at the concentration marked (opt.): A 300 μM, 1 150 μM): 48%
- Conc. (opt.): concentration of maximum transfection efficiency (HeLa cells [1]; pH2B-mCherry plasmid): 300 µM
- Toxicity (qualitative, MTS assay) (HeLa cells [2]; concentration range optimal for transfection (for entry A: at the minimal concentration 150 μM), absorbance 490 nm, normalised to DMSO control): low (Low=cell viability ≥70 %)
- Toxicity (qualitative, MTS assay) at the optimal concentration (HeLa cells [2]; entry A at 300 μM (opt.)): high (high=cell viability <70 %)
